Measurements from patent publication US9274101B2 (BIOLOG, Inc., priority 2001, dated 2016).
Entries after “also recorded” stand apart in the source; their conditions may differ.

Columns and labels:
HL-60 cells [1] = assay: HL-60 responses to selected compounds at a range of concentrations; format: cell-based, human; conditions: for activity at 30 µM / activity at 100 µM / activity at 330 µM / activity at 1000 µM / activity at 3300 µM / activity at 10000 µM / activity at 15000 µM / activity at 20000 µM: Homo sapiens, HL-60, read-out: HL-60 Cell Responses to Selected Compounds from PM1 and PM2; for activity at 30 µM: Conc. 0.03 mM; for activity at 100 µM: Conc. 0.10 mM; for activity at 330 µM: Conc. 0.33 mM; for activity at 1000 µM: Conc. 1.00 mM; for activity at 3300 µM: Conc. 3.3 mM; for activity at 10000 µM: Conc. 10 mM; for activity at 15000 µM: Conc. 15 mM; for activity at 20000 µM: Conc. 20 mM; for response in words: 0.033 to 20 mM
In short: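 Washed HL-60 cells (5×10^4/well) in DME-R were exposed to test energy sources at final 0.033 to 20 mM for 24 h at 37 °C, then MTS/MPMS was added for a further 24 h. OD490 (ref 650 nm) was corrected with cell-free control plates and normalized to % of no-energy-source control.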

ten strains of E. coli = format: cell-based, Escherichia coli; note: key: +: indicates that the organism tested was capable of utilizing the carbon source listed; −: indicates that the organism tested was not capable of utilizing the carbon source listed; indicates weak positive reactions
HL-60 cells [2] = assay: Effect of 10 mM citric acid on HL-60 energy utilization; format: cell-based, human; conditions: for cell activity in the presence of citric acid, in words: 10 mM citric acid; for Effect of 10 mM Citric Acid on HL-60 Energy Utilization: negative control without energy sources and without citric acid
[3] = test system: DMSO-differentiated HL-60 cells; assay: Energy use by DMSO-differentiated HL-60 cells; format: cell-based, human; conditions: for activity at 30 µM / activity at 100 µM / activity at 330 µM / activity at 1000 µM / activity at 3300 µM / activity at 10000 µM / activity at 15000 µM / activity at 20000 µM: Homo sapiens, HL-60, 24 h, read-out: Energy Use by DMSO-Differentiated HL-60 Cells; for activity at 30 µM: Conc. 0.03 mM; for activity at 100 µM: Conc. 0.10 mM; for activity at 330 µM: Conc. 0.33 mM; for activity at 1000 µM: Conc. 1.00 mM; for activity at 3300 µM: Conc. 3.3 mM; for activity at 10000 µM: Conc. 10 mM; for activity at 15000 µM: Conc. 15 mM; for activity at 20000 µM: Conc. 20 mM
In short: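 HL-60 cells, […] differentiated with 1.25% DMSO for 3 days, were plated at 5×10^4/well in DME-R with test energy sources at 0.033–20 mM final for 24 h at 37 °C. Viability was measured by MTS/PMS at 490 nm (ref 650 nm) 24 h after reagent addition. Values were background-subtracted using cell-free plates and expressed as % of the no-energy-source control.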

[4] = energy source 0.03 mM with 10 mM citric acid
[5] = energy source 0.10 mM with 10 mM citric acid
[6] = energy source 0.33 mM with 10 mM citric acid
[7] = energy source 1.00 mM with 10 mM citric acid
[8] = energy source 3.3 mM with 10 mM citric acid
[9] = energy source 10 mM with 10 mM citric acid
[10] = energy source 15 mM with 10 mM citric acid
[11] = energy source 20 mM with 10 mM citric acid

Structure (SMILES)	activity at 30 µM (HL-60 cells [1]) [%]	activity at 100 µM (HL-60 cells [1]) [%]	activity at 330 µM (HL-60 cells [1]) [%]	activity at 1000 µM (HL-60 cells [1]) [%]	activity at 3300 µM (HL-60 cells [1]) [%]	activity at 10000 µM (HL-60 cells [1]) [%]	activity at 15000 µM (HL-60 cells [1]) [%]	activity at 20000 µM (HL-60 cells [1]) [%]	carbon source utilization (ten strains of E. coli)	Effect of 10 mM Citric Acid on HL-60 Energy Utilization (HL-60 cells [2]; [4])	Effect of 10 mM Citric Acid on HL-60 Energy Utilization (HL-60 cells [2]; [5])	Effect of 10 mM Citric Acid on HL-60 Energy Utilization (HL-60 cells [2]; [6])	Effect of 10 mM Citric Acid on HL-60 Energy Utilization (HL-60 cells [2]; [7])	Effect of 10 mM Citric Acid on HL-60 Energy Utilization (HL-60 cells [2]; [8])	Effect of 10 mM Citric Acid on HL-60 Energy Utilization (HL-60 cells [2]; [9])	Effect of 10 mM Citric Acid on HL-60 Energy Utilization (HL-60 cells [2]; [10])	Effect of 10 mM Citric Acid on HL-60 Energy Utilization (HL-60 cells [2]; [11])	activity at 30 µM [3] [%]	activity at 100 µM [3] [%]	activity at 330 µM [3] [%]	other results
O=C[C@H](O)[C@@H](O)[C@@H](O)[C@H](O)C(=O)O [D-galacturonic acid]	124	125	126	138	140	122	101	25	+	1.4 % of negative control	12.8 % of negative control	43.5 % of negative control	61.8 % of negative control	141.6 % of negative control	177.0 % of negative control	136.3 % of negative control	110.8 % of negative control	118	123	138	cell activity in the presence of citric acid, in words (HL-60 cells [2]): acitivity; also recorded: capable of overcoming the antiproliferative effects of citric acid; activity at 1000 µM [3]: 157%; activity at 3300 µM [3]: 168%; activity at 10000 µM [3]: 173%; activity at 15000 µM [3]: 126%; activity at 20000 µM [3]: 101%
NC(=O)C[C@H](N)C(=O)O [L-asparagine]	134	149	138	149	135	137	128	118	+ and −	10.1 % of negative control	15.3 % of negative control	13.4 % of negative control	24.6 % of negative control	48.6 % of negative control	100.1 % of negative control	97.7 % of negative control	98.3 % of negative control	106	112	122	response in words (HL-60 cells [1]): strongly utilized, even at very low concentrations; activity at 1000 µM [3]: 143%; activity at 3300 µM [3]: 153%; activity at 10000 µM [3]: 167%; activity at 15000 µM [3]: 152%; activity at 20000 µM [3]: 134%
NC(=O)CC[C@H](N)C(=O)O [L-glutamine]	147	161	162	168	161	151	127	92	+ and −	15.0 % of negative control	57.8 % of negative control	57.1 % of negative control	108.0 % of negative control	135.0 % of negative control	125.3 % of negative control	107.3 % of negative control	86.7 % of negative control	110	149	154	response in words (HL-60 cells [1]): strongly utilized, even at very low concentrations; cell activity in the presence of citric acid, in words (HL-60 cells [2]): able to restore cell activity to a level equal or greater than the negative control; activity at 1000 µM [3]: 156%; activity at 3300 µM [3]: 172%; activity at 10000 µM [3]: 157%; activity at 15000 µM [3]: 121%; activity at 20000 µM [3]: 109%
Cc1cn([C@H]2C[C@H](O)[C@@H](CO)O2)c(=O)[nH]c1=O [Thymidine]	121	125	128	134	129	106	91.5	68.5	+	5.2 % of negative control	18.9 % of negative control	12.4 % of negative control	22.1 % of negative control	27.9 % of negative control	31.0 % of negative control	20.9 % of negative control	64.8 % of negative control	96	112	143	energy source use in words ([3]; DMSO-differentiated HL-60 cells): able to utilize thymidine at concentrations of 0.1-15 mM; activity at 1000 µM [3]: 165%; activity at 3300 µM [3]: 173%; activity at 10000 µM [3]: 160%; activity at 15000 µM [3]: 160%; activity at 20000 µM [3]: 103%
